Assay results: patent US10166218B2, “3-(1H-indol-2-yl)-1H-pyrazolo[3,4-C]pyridines and therapeutic uses thereof” (Samumed, LLC, priority 2015, dated 2019)

Experiments:
[1] = tested on: primary human fibroblasts derived from IPF patients (LL29 cells) treated with TGF-β1; α-smooth muscle actin (αSMA); test: Inhibition of the fibrotic process: αSMA staining in TGF-β1 treated primary human fibroblasts from IPF patients (LL29 cells); assay type: cell-based; conditions: Fibroblast, 96 h, TGF-β1 20 ng/mL, 4 days; for EC50: % cells positive for αSMA
How it was run: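 LL29 IPF-patient lung fibroblasts in 1% FBS F12 were given compounds (11-point, 10 μM to […], 0.1% DMSO) plus TGF-β1 20 ng/mL for 4 days at 37 °C. αSMA-positive fraction of live (SYTOX-negative) cells was imaged and normalized to TGF-β1/DMSO wells. EC50 by non-linear regression, or % inhibition at 10 μM if >10 μM.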

[2] = tested on: primary human mesenchymal stem cells (hMSCs); test: Induction of chondrogenesis in primary human mesenchymal stem cells (chondrogenic nodules); assay type: cell-based; conditions: 144 h, 6 days; for EC50: concentration required to induce 50% levels of chondrogenesis of TGF-β3 positive control, read-out: Conc (nM) of 50% TGF-β3 activity; for Emax: nodules, relative to TGF-β3 (10 ng/mL) positive control, read-out: Max. Activity as % TGF-β3 activity
Protocol: Representative compounds were screened using primary human mesenchymal stem cells (hMSCs) to determine their ability to induce chondrogenesis (process by which cartilage is developed).
Primary human mesenchymal stem cells (hMSCs) were purchased from Lonza (Walkersville, Md.) and expanded in Mesenchymal Stem Cell Growth Media (Lonza). Cells between passage 3 and 6 were used for the experiments.
Each compound was dissolved in DMSO as a 10 mM stock and used to prepare compound source plates. Serial dilution (1:3, 6-point dose-response curves from 2700 nM to 10 nM) and compound transfer was performed using the ECHO 550 (Labcyte, Sunnyvale, Calif.) into 96-well clear bottom assay plates (Greiner Bio-One) with appropriate DMSO backfill for a final DMSO concentration of 0.03%. hMSCs were plated at 20,000 cells/well in 250 μL/well Incomplete Chondrogenic Induction Medium (Lonza; DMEM, dexamethasone, ascorbate, insulin-transferrin-selenium [ITS supplement], gentamycin-amphotericin [GA-1000], sodium pyruvate, proline and L-glutamine). TGF-β3 (10 ng/mL) was used as a positive control for differentiation while negative control wells were treated with 75 nL DMSO for normalization and calculating EC50 values. Cells were incubated at 37° C. and 5% CO2 for 6 days. To image chondrogenic nodules, the cells were fixed using 4% formaldehyde (Electron Microscopy Sciences), and stained with 2 μg/mL Rhodamine B (Sigma-Aldrich) and 20 μM Nile Red (Sigma-Aldrich) [Johnson K., et. al, A Stem Cell-Based Approach to Cartilage Repair, Science, (2012), 336(6082), 717-721]. The nodules imaged (4 images per well at 4× magnification) by excitation at 531 nm and emission at 625 nm and quantified using the CellInsight CX5 (Thermo Scientific). Number of nodules in each well was normalized to the average of 3 DMSO treated wells on the same plate using Excel (Microsoft Inc.). The normalized averages (fold change over DMSO) of 3 replicate wells for each compound concentration were calculated. Due to solubility limitations of some of the compounds, curve fitting was incomplete leading to inaccurate EC50 determinations.
Using TGF-β3 as a positive control, the concentration of representative compounds required to induce 50% levels of chondrogenesis is reported. In addition, the maximum activity of each compound and the respective dose that each compound reached maximum chondrogenesis activity is reported.

For `O=C(Nc1cncc(-c2cc3c(-c4cc5c(-c6cccnc6)cccc5[nH]4)n[nH]c3cn2)c1)C1CC1` [Compound 104, N-(5-(3-(4-(Pyridin-3-yl)-1H-indol-2-yl)-1H-pyrazolo[3,4-c]pyridin-5-yl)pyridin-3-yl)cyclopropanecarboxamide], the EC50 [1] was 189 nM, the EC50 [2] was 100 nM and the Emax [2] was 308%.
`Nc1cncc(-c2cc3c(-c4cc5c(-c6ccccn6)cccc5[nH]4)n[nH]c3cn2)c1` [Compound 143, 5-(3-(4-(Pyridin-2-yl)-1H-indol-2-yl)-1H-pyrazolo[3,4-c]pyridin-5-yl) pyridin-3-amine] showed an EC50 [1] of 98 nM, an EC50 [2] of 300 nM and an Emax [2] of 118%.
For `Cc1ccncc1-c1cc2c(-c3cc4c(-c5ccccn5)cccc4[nH]3)n[nH]c2cn1` [Compound 145, 5-(4-Methylpyridin-3-yl)-3-(4-(pyridin-2-yl)-1H-indol-2-yl)-1H-pyrazolo [3,4-c]pyridine], the EC50 [1] was 223 nM, the EC50 [2] was 30 nM and the Emax [2] was 90%.
In the case of `CN(C)Cc1cncc(-c2cc3c(-c4cc5c(-c6ccccn6)cccc5[nH]4)n[nH]c3cn2)c1` [Compound 153, N,N-Dimethyl-1-(5-(3-(4-(pyridin-2-yl)-1H-indol-2-yl)-1H-pyrazolo[3,4-c]pyridin-5-yl)pyridin-3-yl)methanamine], the EC50 [1] is reported as 461 nM, the EC50 [2] is reported as 30 nM and the Emax [2] is reported as 75%.
With `CCCCC(=O)Nc1cncc(-c2cc3c(-c4cc5c(-c6ccccn6)cccc5[nH]4)n[nH]c3cn2)c1` [Compound 159, N-(5-(3-(4-(Pyridin-2-yl)-1H-indol-2-yl)-1H-pyrazolo[3,4-c]pyridin-5-yl)pyridin-3-yl)pentanamide] the EC50 [1] was 269 nM, the EC50 [2] was 900 nM and the Emax [2] was 84%.
`CC(C)C(=O)Nc1cncc(-c2cc3c(-c4cc5c(N6CCN(C)CC6)cccc5[nH]4)n[nH]c3cn2)c1` [Compound 233] showed an EC50 [1] of over 10000 nM, an inhibition at 10 µM ([1]; αSMA, 10 μM, read-out: percent inhibition at 10 μM (given for EC50 of >10 μM)) of 74.5% and an Emax [2] of 36%.
Molecule `O=C(Nc1cncc(-c2cc3c(-c4cc5ccccc5[nH]4)n[nH]c3cn2)c1)c1ccccc1` [Compound 263, N-(5-(3-(1H-Indol-2-yl)-1H-pyrazolo[3,4-c]pyridin-5-yl)pyridin-3-yl) benzamide] has an EC50 [1] of 65 nM and an Emax [2] of 122%.
Molecule `c1ccc2[nH]c(-c3n[nH]c4cnc(-c5cncc(CN6CCCC6)c5)cc34)cc2c1` [Compound 266, 3-(1H-Indol-2-yl)-5-(5-(pyrrolidin-1-ylmethyl)pyridin-3-yl)-1H-pyrazolo [3,4-c]pyridine] has an EC50 [1] of 143 nM and an Emax [2] of 138%.
In the case of `c1cc(-c2ccoc2)c2cc(-c3n[nH]c4cnc(-c5cncc(CN6CCCCC6)c5)cc34)[nH]c2c1` [Compound 323, 3-(4-(Furan-3-yl)-1H-indol-2-yl)-5-(5-(piperidin-1-ylmethyl)pyridin-3-yl)-1H-pyrazolo[3,4-c]pyridine], the EC50 [1] is reported as 261 nM and the Emax [2] is reported as 85%.
`CN(C)CCNc1cc(F)cc(-c2cccc3[nH]c(-c4n[nH]c5cnc(-c6cncc(N)c6)cc45)cc23)c1` [Compound 451, N^1-(3-(2-(5-(5-Aminopyridin-3-yl)-1H-pyrazolo[3,4-c]pyridin-3-yl)-1H-indol-4-yl)-5-fluorophenyl)-N^2,N^2-dimethylethane-1,2-diamine] showed an EC50 [1] of 46 nM, an EC50 [2] of 100 nM and an Emax [2] of 180%.
`CCNCc1cncc(-c2cc3c(-c4cc5c(-c6cc(F)cc(NCCN(C)C)c6)cccc5[nH]4)n[nH]c3cn2)c1` [Compound 454, N^1-(3-(2-(5-(5-((Ethylamino)methyl)pyridin-3-yl)-1H-pyrazolo[3,4-c]pyridin-3-yl)-1H-indol-4-yl)-5-fluorophenyl)-N^2,N^2-dimethylethane-1,2-diamine] showed an EC50 [1] of 583 nM, an EC50 [2] of 30 nM and an Emax [2] of 294%.
In the case of `CN(C)CCNc1cc(F)cc(-c2cccc3[nH]c(-c4n[nH]c5cnc(-c6cncc(NC(=O)C(C)(C)C)c6)cc45)cc23)c1` [Compound 456, N-(5-(3-(4-(3-((2-(Dimethylamino)ethyl)amino)-5-fluorophenyl)-1H-indol-2-yl)-1H-pyrazolo[3,4-c]pyridin-5-yl)pyridin-3-yl)pivalamide], the EC50 [1] is reported as 444 nM, the EC50 [2] is reported as 10 nM and the Emax [2] is reported as 87%.
